Data taken from PMC8284453 (Antimicrobial Agents and Chemotherapy, 2021).
≈ marks a conversion by molar mass, not a printed value. Where two headings read alike, the source gives them in different places.

How the values were obtained:
[1] = test system: Enterobacterales expressing class C cephalosporinases
[2] = test system: Enterobacterales expressing class A ESBLs; assay: organism not typed; assay type: cell-based, E. coli, K. pneumoniae; details: 25 isolates; BLI fixed at 4 μg/ml, AMC 2:1
[3] = test system: K. pneumoniae ATCC BAA-1705 (KPC-2); assay: 24-h time-kill assay; assay type: cell-based; details: lowest concentration with ≥3-log10 CFU/ml reduction at 24 h
Experimental: (§1) In vitro antibacterial time-kill assay. […] Time-kill assays were performed in 14 ml glass tubes or deep-well storage plates with a bacterial inoculum in CAMHB of 5 × 10^5 CFU/ml. The tubes/plates were incubated at 37°C with shaking at 200 rpm, and aliquots were drawn at six time points (0, 2, 4, 6, 8, and 24 h) to conduct 0.5 log10 dilutions in CAMHB in 96-well plates that were incubated overnight at 37°C and used to ascertain viable bacterial counts. The lowest quantifiable amount by this method is 2 log10 CFU/ml.

E. coli ESBL4 (CTX-M-15) = assay: 24-h time-kill assay; assay type: cell-based
Experimental: as §1

[4] = test system: E. cloacae ECL01 (TEM-72, ACT-1, P99AmpC); assay: 24-h time-kill assay; assay type: cell-based; details: lowest concentration with ≥3-log10 CFU/ml reduction at 24 h
Experimental: as §1

[5] = test system: K. pneumoniae 752286 (OXA-48); assay: 24-h time-kill assay; assay type: cell-based; details: lowest concentration with ≥3-log10 CFU/ml reduction at 24 h
Experimental: as §1

[6] = test system: Enterobacterales expressing class A carbapenemases (KPC); assay: organism not typed; assay type: cell-based, K. pneumoniae, E. coli, E. cloacae, Klebsiella oxytoca
[7] = test system: E. cloacae ECL01 (TEM-72, ACT-1, P99AmpC); assay: Broth microdilution MIC; assay type: cell-based; details: modal value, 5 independent determinations
[8] = test system: isogenic strains of E. coli expressing Ambler class A, B, C, and D enzymes; assay: microbe, parasite or virus in culture; assay type: cell-based, Escherichia coli

Compound C[C@@H](O)[C@H]1C(=O)N2C(C(=O)O)=C(S[C@H]3CC[S@@+]([O-])C3)S[C@H]12 [Sulopenem] has an MIC ([1]; S. marcescens 192478 (AmpC, SHV-12, TEM-1)) of 0.25 µg/mL (≈ 0.715 µM), an MIC ([1]; S. marcescens 218068 (AmpC, SHV-7, TEM-1)) of 4 µg/mL (≈ 11.4 µM) and an MIC50 [2] of 0.12 µg/mL (≈ 0.343 µM). It also gave an MIC90 [2] of 0.5 µg/mL (≈ 1.43 µM), an MIC range [2] of 0.03 to 1 µg/mL and an MBC [3] of 32 µg/mL (≈ 91.6 µM). For the same compound, the “outcome of 24-h time-kill assay” value (E. coli ESBL4 (CTX-M-15); Fig. 3a, CTB 2 μg/ml with BLI at 4 μg/ml, CTB alone 8 μg/ml, amoxicillin 8/clavulanic acid 4 μg/ml, penems 2 μg/ml) was “bactericidal activity”, the MBC (E. coli ESBL4 (CTX-M-15); lowest concentration with ≥3-log10 CFU/ml reduction at 24 h) was 0.12 µg/mL (≈ 0.343 µM) and the MBC [4] was 1 µg/mL (≈ 2.86 µM). The MBC [5] was over 32 µg/mL, the MIC50 ([6]; 25 isolates, BLI fixed at 4 μg/ml, AMC 2:1) was 32 µg/mL (≈ 91.6 µM) and the MIC90 ([6]; 25 isolates, BLI fixed at 4 μg/ml, AMC 2:1, listed as sulopenem) was at least 64 µg/mL. For the same compound, the MIC ([6]; E. cloacae 847426 (KPC)) was at least 64 µg/mL, the MIC ([6]; E. cloacae 847429 (KPC)) was at least 64 µg/mL and the MIC ([6]; E. cloacae OIMGH49 (p99 AmpC, ACT-2, KPC-2, TEM-1)) was at least 64 µg/mL. The MIC ([6]; E. coli 786978 (KPC)) was at least 64 µg/mL, the MIC ([6]; K. oxytoca 847537 (KPC)) was at least 64 µg/mL and the MIC ([6]; K. oxytoca 847539 (KPC)) was 4 µg/mL (≈ 11.4 µM). The MIC ([6]; K. pneumoniae 155140 (AmpC, KPC-2, SHV-12, TEM-1)) was at least 64 µg/mL, the MIC ([6]; K. pneumoniae 845661 (KPC)) was at least 64 µg/mL and the MIC ([6]; K. pneumoniae 845662 (KPC)) was at least 64 µg/mL. For the same compound, the MIC ([6]; K. pneumoniae 845665 (KPC)) was at least 64 µg/mL, the MIC ([6]; K. pneumoniae 845667 (KPC)) was at least 64 µg/mL and the MIC ([6]; K. pneumoniae 845670 (KPC)) was 16 µg/mL (≈ 45.8 µM). The MIC ([6]; K. pneumoniae 845904 (KPC)) was 16 µg/mL (≈ 45.8 µM), the MIC ([6]; K. pneumoniae 847204 (KPC)) was 32 µg/mL (≈ 91.6 µM) and the MIC ([6]; K. pneumoniae 847375 (KPC)) was 32 µg/mL (≈ 91.6 µM). It also gave an MIC ([6]; K. pneumoniae 847378 (KPC)) of 32 µg/mL (≈ 91.6 µM), an MIC ([6]; K. pneumoniae 847379 (KPC)) of 8 µg/mL (≈ 22.9 µM) and an MIC ([6]; K. pneumoniae 847383 (KPC)) of 32 µg/mL (≈ 91.6 µM). The MIC ([6]; K. pneumoniae 847384 (KPC)) was at least 64 µg/mL, the MIC ([6]; K. pneumoniae 847387 (KPC)) was 32 µg/mL (≈ 91.6 µM) and the MIC ([6]; K. pneumoniae 847747 (KPC)) was 32 µg/mL (≈ 91.6 µM). The MIC ([6]; K. pneumoniae 848832 (KPC)) was at least 64 µg/mL, the MIC ([6]; K. pneumoniae 848844 (KPC)) was 32 µg/mL (≈ 91.6 µM) and the MIC ([6]; K. pneumoniae 897067 (KPC)) was 8 µg/mL (≈ 22.9 µM). The MIC ([6]; K. pneumoniae UMM (KPC-2, SHV-5, TEM-1)) was 16 µg/mL (≈ 45.8 µM), the MIC [7] was 1 µg/mL (≈ 2.86 µM) and the “Fold increase in MIC compared to vector control” value (from here on “Fold increase in MIC”) [8] was 2. For the same compound, the “Fold increase in MIC” value ([8]; E. coli expressing ACT-17 (class C), inhibitor fixed at 4 μg/ml) was 8, the “Fold increase in MIC” value ([8]; E. coli expressing CMY-2 (class C), inhibitor fixed at 4 μg/ml) was 8 and the “Fold increase in MIC” value ([8]; E. coli expressing CMY-42 (class C), inhibitor fixed at 4 μg/ml) was 16. The “Fold increase in MIC” value ([8]; E. coli expressing CTX-M-15 (class A), inhibitor fixed at 4 μg/ml) was 4, the “Fold increase in MIC” value ([8]; E. coli expressing GES-5 (class A), inhibitor fixed at 4 μg/ml) was 256 and the “Fold increase in MIC” value ([8]; E. coli expressing KPC-2 (class A), inhibitor fixed at 4 μg/ml) was 2,048. The “Fold increase in MIC” value ([8]; E. coli expressing KPC-3 (class A), inhibitor fixed at 4 μg/ml) was 2,048, the “Fold increase in MIC” value ([8]; E. coli expressing KPC-3 D179Y (class A), inhibitor fixed at 4 μg/ml) was 16 and the “Fold increase in MIC” value ([8]; E. coli expressing NDM-1 (class B), inhibitor fixed at 4 μg/ml) was 1,024. For the same compound, the “Fold increase in MIC” value ([8]; E. coli expressing OXA-23 (class D), inhibitor fixed at 4 μg/ml) was 64, the “Fold increase in MIC” value ([8]; E. coli expressing OXA-48 (class D), inhibitor fixed at 4 μg/ml) was 512 and the “Fold increase in MIC” value ([8]; E. coli expressing OXA-163 (class D), inhibitor fixed at 4 μg/ml) was 8. For the same compound, the “Fold increase in MIC” value ([8]; E. coli expressing OXA-181 (class D), inhibitor fixed at 4 μg/ml) was 1,024, the “Fold increase in MIC” value ([8]; E. coli expressing P99/AmpC (class C), inhibitor fixed at 4 μg/ml) was 16 and the “Fold increase in MIC” value ([8]; E. coli expressing PER-1 (class A), inhibitor fixed at 4 μg/ml) was 8. The “Fold increase in MIC” value ([8]; E. coli expressing SHV-5 (class A), inhibitor fixed at 4 μg/ml) was 8, the “Fold increase in MIC” value ([8]; E. coli expressing SHV-12 (class A), inhibitor fixed at 4 μg/ml) was 4 and the “Fold increase in MIC” value ([8]; E. coli expressing VEB-9 (class A), inhibitor fixed at 4 μg/ml) was 4.
